Measurements published in patent US20120100564A1, “Prediction of Memapsin 2 Cleavage Sites” (priority 2010, published 2012).
Peptide text beside a SMILES is read from it.

What was measured:
γ-secretase = assay: CTF99 level in APP-transfected CAD cells with γ-secretase inhibitor (Western blot); type: cell-based, mouse; conditions: in both APPIDF and APPSW cells
Method: Cell culture, transfection and analysis of APP processing products. Mouse neuronal CAD cell line was cultured with DMEM/F12 media (Invitrogen, Carlsbad, Calif.) containing 10% fetal bovine serum and 2% penicillin/streptomycin. Transient trransfections were performed using Fugene HD (Roche, Sweden) according to the manufacture's instruction. 24 hours later after transfection, total cell lysate and cell media were collected and 1% of Protease inhibitor was added (Calbiochem, Gibbstown, N.J.). Aβ level in media was assayed by Aβ [1-40] Human Fluorimetric ELISA Kit (invitrogen, Carlsbad, Calif.). Conditioned media or total cell lysate from the transiently transfected cells were subjected to 10% or 10-20% tricine SDS-PAGE gels (Invitrogen, Carlsbad, Calif.), and transferred to PVDF membranes. The blots were probed with antibodies. The western blot analysis was used for determining the levels of full-length APP, APP's proteolytic products and β-actin.
APPIDF and APPSW cells were also similar in cellular processing characteristics. […] CTF99 is increased in both APPIDF and APPSW cells when γ-secretase inhibitor DAPT slowed its degradation (FIG. 4A, second line, right lanes). As expected, APP ectodomain fragment from α-secretase cleavage, sAPPα, decreased in both APPIDF and APPSW cells as compared to that in APPWT cells (FIG. 4A, fourth panel).

human memapsin 2 = target: T1, human memapsin 2 (Homo sapiens, UniProt P56817); assay: Determination of kcat/KM of memapsin 2 substrate peptides (steady-state kinetics and competitive hydrolysis, ESI LC/MS); type: biochemical; conditions: steady-state kinetics, substrate 5 μM to 150 μM, pH 4.0, 37° C.
T1 construct: The ecto-domain of human memapsin 2 was expressed and purified as described previously (Hong et al., 2000); made in house
Description: Materials. α-cyan-4 hydroxycinnamic acid, D0- and D6-form acetic anhydride , N-hydroxysuccinimide were purchased from Sigma. Peptide (Des-Ser1)-Cerebellin was purchased from Bachem (Bubendorf, Switzerland). All peptides derived from memapsin 2 potential substrates were synthesized by GenScript (Piscataway, N.J.). The ecto-domain of human memapsin 2 was expressed and purified as described previously (Hong et al., 2000). Monoclonal anti-memapsin 2 antibody 3E7 was purchased from Santa Cruz Biotechnology Inc (Santa Cruz, Calif.). Monoclonal anti-APP antibody 1560, MAB348 and polyclonal anti-APP antibody 5352 were purchased from Millipore (Billerica, Mass.). Monoclonal anti-actin antibody was purchased from Abcam (Cambridge, Mass.).
Determination of kcat/KM of different memapsin 2's substrates. […] Initial velocity was determined by ESI LC/MS, in which the product an substrate peak areas were quantitated. The kinetic parameters, kcat and KM were determined from non-linear regression using Grafit software (Surrey, UK). […] Relative kcat/KM of different substrates were determined by comparing the initial hydrolysis rates to that of VGSC beta 2.
Comparison of the kinetics for peptides derived from memapsin 2 protein substrates. […] The relative kcat/KM values of other twelve peptides were determined from their relative pseudo-first-order hydrolytic rates. […]

T1 sequence (P56817 46-457 limits assumed): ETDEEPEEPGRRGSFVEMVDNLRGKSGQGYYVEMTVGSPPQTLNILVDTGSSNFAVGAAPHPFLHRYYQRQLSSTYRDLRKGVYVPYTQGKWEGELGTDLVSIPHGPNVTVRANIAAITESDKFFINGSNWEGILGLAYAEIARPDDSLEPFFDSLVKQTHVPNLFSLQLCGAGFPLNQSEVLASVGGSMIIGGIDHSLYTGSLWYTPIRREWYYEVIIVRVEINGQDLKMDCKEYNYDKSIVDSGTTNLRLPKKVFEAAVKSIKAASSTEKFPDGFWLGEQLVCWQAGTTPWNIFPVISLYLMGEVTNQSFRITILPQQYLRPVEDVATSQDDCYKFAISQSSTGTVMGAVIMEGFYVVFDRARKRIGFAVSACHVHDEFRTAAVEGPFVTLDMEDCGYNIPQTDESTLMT

Row | Km (human memapsin 2) | Compound | CTF99 level (γ-secretase)
1 | – | C[C@H](NC(=O)Cc1cc(F)cc(F)c1)C(=O)N[C@H](C(=O)OC(C)(C)C)c1ccccc1 [DAPT] | increased
2 | 36.4 µM | CC[C@H](C)[C@H](NC(=O)[C@H](CCCCN)NC(=O)CNC(=O)[C@H](Cc1c[nH]cn1)NC(=O)CNC(=O)[C@@H](N)CCCNC(=N)N)C(=O)N[C@@H](Cc1ccc(O)cc1)C(=O)N[C@@H](CC(C)C)C(=O)N[C@@H](CCC(N)=O)C(=O)N[C@H](C(=O)N[C@@H](CC(C)C)C(=O)N[C@@H](CC(C)C)C(=O)O)C(C)C [VGSC-β2] (H-RGHGKIYLQVLL-OH) | –
